Data as given in ChEMBL document CHEMBL1158438, “Discovery and structure-guided drug design of inhibitors of 11beta-hydroxysteroid-dehydrogenase type I based on a spiro-carboxamide scaffold” (Bioorg Med Chem Lett, 2009).

Columns and labels:
[1] = molecular target: T1, 11-beta-hydroxysteroid dehydrogenase type 2 (Homo sapiens, UniProt P80365); assay: Inhibition of human recombinant 11beta-HSD2 expressed in Escherichia coli by HTRF assay
T1 sequence (P80365 whole entry): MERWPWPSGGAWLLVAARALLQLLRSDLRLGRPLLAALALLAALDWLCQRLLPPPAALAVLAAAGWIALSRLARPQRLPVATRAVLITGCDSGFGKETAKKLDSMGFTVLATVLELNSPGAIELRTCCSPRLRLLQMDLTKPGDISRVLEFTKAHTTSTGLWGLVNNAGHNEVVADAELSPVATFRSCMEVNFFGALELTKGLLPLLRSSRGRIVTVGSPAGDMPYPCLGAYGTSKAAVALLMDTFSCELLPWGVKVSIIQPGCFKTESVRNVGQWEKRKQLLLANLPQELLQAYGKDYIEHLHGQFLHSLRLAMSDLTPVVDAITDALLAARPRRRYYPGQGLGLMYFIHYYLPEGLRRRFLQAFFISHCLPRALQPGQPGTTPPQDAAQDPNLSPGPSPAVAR

[2] = molecular target: 11-beta-hydroxysteroid dehydrogenase 1 (Mus musculus, UniProt P50172); assay: Inhibition of 11beta-HSD1 in mouse liver microsomes fraction; parameters: species or system Microsome
Sequence of 11-beta-hydroxysteroid dehydrogenase 1 (Mus musculus, UniProt P50172) (P50172 whole entry): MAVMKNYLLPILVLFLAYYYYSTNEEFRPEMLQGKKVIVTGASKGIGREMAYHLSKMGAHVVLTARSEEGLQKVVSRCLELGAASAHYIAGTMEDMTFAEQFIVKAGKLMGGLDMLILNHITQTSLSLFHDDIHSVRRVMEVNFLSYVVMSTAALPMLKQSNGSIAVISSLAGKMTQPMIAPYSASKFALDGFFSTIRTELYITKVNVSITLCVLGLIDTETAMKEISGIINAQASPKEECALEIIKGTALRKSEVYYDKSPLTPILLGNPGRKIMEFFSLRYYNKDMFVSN

[3] = species on record: Homo sapiens; assay: Selectivity ratio, IC50 for human recombinant 11beta-HSD2 to IC50 for human recombinant 11beta-HSD1
[4] = molecular target: T2, 11-beta-hydroxysteroid dehydrogenase 1 (Homo sapiens, UniProt P28845); assay: Inhibition of human recombinant 11beta-HSD1 expressed in Escherichia coli by HTRF assay
Target sequence in this assay (P28845 whole entry): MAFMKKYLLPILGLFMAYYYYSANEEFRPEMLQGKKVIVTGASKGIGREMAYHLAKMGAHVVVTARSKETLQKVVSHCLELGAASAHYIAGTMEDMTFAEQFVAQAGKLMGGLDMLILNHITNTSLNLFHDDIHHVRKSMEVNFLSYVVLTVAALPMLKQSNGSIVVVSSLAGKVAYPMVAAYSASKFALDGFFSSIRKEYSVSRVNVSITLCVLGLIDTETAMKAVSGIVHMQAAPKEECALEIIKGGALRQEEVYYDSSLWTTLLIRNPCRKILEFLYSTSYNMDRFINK

[5] = molecular target: T2, 11-beta-hydroxysteroid dehydrogenase 1
Target sequence in this assay (P28845 whole entry, looked up): as the sequence (P28845 whole entry) above

[6] = molecular target: T2, 11-beta-hydroxysteroid dehydrogenase 1; assay: Inhibition of human 11beta-HSD1

Row | IC50 [1] | IC50 [2] | Ratio IC50 [3] | IC50 [4] | BEI [5] | BEI [6] | IC50 [6] | SMILES
1 | > 100000 nM | 3400 nM | > 4500 | 22 nM | 20.9 kDa-1 | – | – | O=C(N1CCC2(CCCc3ccccc32)C1)C1(c2ccc(Cl)cc2)CC1 (stereo not given)
2 | > 100000 nM | 2600 nM | – | – | 21.6 kDa-1 | – | – | O=C(N1CCC2(CCc3ccccc32)C1)C1(c2ccc(Cl)cc2)CC1 (stereo not given)

Second part, the compound before the results:

Row | SMILES | IC50 [1] | IC50 [2] | Ratio IC50 [3] | IC50 [4] | BEI [5] | BEI [6] | IC50 [6]
3 | O=C(N1CCC2(CCCCC2)C1)C1(c2ccc(Cl)cc2)CC1 | > 100000 nM | 3400 nM | > 16000 | 6 nM | 25.9 kDa-1 | – | –
4 | O=C(N1CCC2(CCCCC2)C1)C1(c2ccccc2)CC1 | > 100000 nM | 377 nM | > 200000 | 0.5 nM | 32.7 kDa-1 | – | –
5 | O=C1CC2(CCN(C(=O)C3(c4ccccc4)CC3)CC2)Oc2ccc(F)cc21 | – | – | – | – | – | 14.8 kDa-1 | 2500 nM
